Row | SMILES | melting point [°C]
1 | COc1cc(C)c(C(=O)c2c(C(F)(F)F)cc(Cl)nc2Cl)c(OC)c1OC [compound No. 3, 3-(2,3,4-trimethoxy-6-methylbenzoyl)-2,6-dichloro-4-trifluoromethylpyridine] | 81 to 83
2 | COc1cc(C)c(C(=O)c2c(C(F)(F)F)ccnc2Cl)c(OC)c1OC [compound No. 11, 3-(2,3,4-trimethoxy-6-methylbenzoyl)-2-chloro-4-trifluoromethylpyridine] | 110 to 112
3 | COc1cc(C)c(C(=O)c2c(C(F)(F)F)ccnc2OC)cc1OC [compound No. 32, 3-(4,5-dimethoxy-2-methylbenzoyl)-2-methoxy-4-trifluoromethylpyridine] | 125 to 127
4 | COc1cc(C)c(C(=O)c2c(Cl)nc(Cl)c(C(C)=O)c2C(F)(F)F)c(OC)c1OC [compound No. 62, 5-(2,3,4-trimethoxy-6-methylbenzoyl)-3-acetyl-2,6-dichloro-4-trifluoromethylpyridine] | 109 to 112
5 | COc1cc(C)c(C(=O)c2c(Cl)cnc(Cl)c2C(F)(F)F)c(OC)c1OC [compound No. 90, 4-(2,3,4-trimethoxy-6-methylbenzoyl)-2,5-dichloro-3-trifluoromethylpyridine] | 106 to 109
6 | COc1cc(C)c(C(=O)c2c(OC)cncc2C(F)(F)F)c(OC)c1OC [compound No. 122, 4-(2,3,4-trimethoxy-6-methylbenzoyl)-3-methoxy-5-trifluoromethylpyridine] | 103 to 106
7 | COc1cc(C)c(C(=O)c2c(OC)cnc(Cl)c2C(F)(F)F)c(OC)c1OC [compound No. 123, 4-(2,3,4-trimethoxy-6-methylbenzoyl)-2-chloro-3-trifluoromethyl-5-methoxypyridine] | 117 to 119
8 | COc1cc(C)c(C(=O)c2c(Cl)cnc(Cl)c2Cl)c(OC)c1OC [compound No. 186, 4-(2,3,4-trimethoxy-6-methylbenzoyl)-2,3,5-trichloropyridine] | 60 to 61
9 | COc1cc(C)c(C(=O)c2c(OC)cnc(Cl)c2Cl)c(OC)c1OC [compound No. 193, 4-(2,3,4-trimethoxy-6-methylbenzoyl)-2,3-dichloro-5-methoxypyridine] | 98 to 99

More lines, now with the values ahead:

Row | melting point [°C] | SMILES
10 | 59 to 62 | COc1cc(C)c(C(=O)c2cnccc2C(F)(F)F)c(OC)c1OC [compound No. 7, 3-(2,3,4-trimethoxy-6-methylbenzoyl)-4-trifluoromethylpyridine]
11 | 116 to 117 | COc1cc(C)c(C(=O)c2c(C(F)(F)F)ccnc2Cl)cc1OCc1ccccc1 [compound No. 27, 3-(5-benzyloxy-4-methoxy-2-methylbenzoyl)-2-chloro-4-trifluoromethylpyridine]
12 | 75 to 77 | COc1cc(C)c(C(=O)c2c(Cl)cncc2C(F)(F)F)c(OC)c1OC [compound No. 102, 4-(2,3,4-trimethoxy-6-methylbenzoyl)-3-chloro-5-trifluoromethylpyridine]
13 | 145 to 147 | COc1cc(C)c(C(=O)c2c(OC)cnc(Br)c2C(F)(F)F)c(OC)c1OC [compound No. 124, 4-(2,3,4-trimethoxy-6-methylbenzoyl)-2-bromo-3-trifluoromethyl-5-methoxypyridine]
14 | 109 to 111 | COc1cc(C)c(C(=O)c2c(Cl)cncc2Cl)c(OC)c1OC [compound No. 191, 4-(2,3,4-trimethoxy-6-methylbenzoyl)-3,5-dichloropyridine]
15 | 88 to 93 | COc1cc(C)c(C(=O)c2c(C)cncc2Br)c(OC)c1OC [compound No. 228, 4-(2,3,4-trimethoxy-6-methylbenzoyl)-3-bromo-5-methylpyridine]
16 | 97 to 99 | COc1cc(C)c(C(=O)c2c(OC)cnc(Br)c2Cl)c(OC)c1OC [compound No. 245, 4-(2,3,4-trimethoxy-6-methylbenzoyl)-2bromo-3-chloro-5-methoxypyridine]
